Results from PMC12022909, “A Multicomponent Reaction-Based Platform Opens New Avenues in Aryl Hydrocarbon Receptor Modulation” (ACS Central Science, 2025).

How the values were obtained:
[1] = system: Jurkat cells; test: Cell viability (Annexin V-APC, flow cytometry) in Jurkat cells; format: cell-based; settings: 24 h
Experimental: (§1) A phosphatidylserine exposure was used to determine cell viability. Cells were washed with PBS, pelleted, and then incubated with annexin binding buffer containing Annexin V-APC (Life Technologies) for 15 min in the dark. Then, samples were analyzed by flow cytometry using FACSCanto II and FACSDiva (BD Biosciences, Franklin Lakes, NJ, USA). Data represents the percentage of non - apoptotic cells (Ann -APC-).
(§2) The cytotoxicity of a selection of the synthesized compounds was assessed after 24 hours of treatment in two human cell lines, Jurkat and HEK293T, coming from either tumoral T-cell lymphocytes or non-tumoral embryonic kidney fibroblasts, respectively. […]
(§3) the pro-apoptotic activity was not significant below 10 µM for most compounds in both cell lines, except for 5i, 5k and 5l in both cell lines, as well as 9a in Jurkat and 5e HEK293T cells (Figure S35A-B).
(§4) Moreover, the cytotoxicity of compounds 4d, 5b, 5h, 8, 10, and 12d at a higher concentration (100 µM) was assessed in both cell lines, Jurkat and HEK293T. The cytotoxicity of compounds 5b, 5h, and 12d could not be properly tested as the compounds were not soluble […]
(§5) effects observed for compound 4d in Jurkat cells and compound 8 in HEK293T cells (Figure S35C).
(§6) Figure S35. A) Jurkat and B) HEK293T cells were treated with 1 and 10 µM doses of the corresponding compound for 24 hours. Indicated doses of fluorizoline were used as a positive control of cell death. C) Jurkat and HEK293T cells were treated with 100 µM of the corresponding compound for 24 hours. Viability was measured by flow cytometry, and it is expressed as the mean ± SEM (n = 3) of the percentage of non -apoptotic cells (Ann-APC-). * p < 0.05, ** p < 0.01 *** p < […]
(§7) (1 picture or pasted object on this page, not shown here)

[2] = system: HEK293T cells; test: Cell viability (Annexin V-APC, flow cytometry) in HEK293T cells; format: cell-based; settings: 24 h
Experimental: as §1, §2, §3, §4, §5, §6, §7

**Q.** `CCOc1c2[nH]c3ccccc3c2cc2[nH]c3ccccc3c12` [compound 8, 6-ethoxy-ICZ] was tested. Which “cytotoxicity / pro-apoptotic activity at 100 µM” value [1] did it give?
**A.** minimal pro-apoptotic activity

**Q.** And the “cytotoxicity / pro-apoptotic activity at 100 µM” value [2]?
**A.** slight cytotoxic effects
